According to PubChem BioAssay (NCI):
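In this assay, cells in 96-well plates receive the compound at five concentrations for 48 hours. Endpoints are linearly interpolated between the surrounding concentrations. GI50 marks 50% less growth. At the TGI there is no net growth.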

What was measured:
Assay in all cases: NCI-60 cell line screen, 48 h
[1] = system: ACHN renal
[2] = system: SF-539 CNS
[3] = system: HCC-2998 colon
[4] = system: SK-OV-3 ovarian
[5] = system: NCI-H226 lung
[6] = system: TK-10 renal
[7] = system: M14 melanoma
[8] = system: CCRF-CEM leukemia
[9] = system: SK-MEL-5 melanoma
[10] = system: BT-549 breast

Compound	TGI [1] [µM]	TGI [2] [µM]	TGI [3] [µM]	TGI [4] [µM]	TGI [5] [µM]	TGI [6] [µM]	TGI [7] [µM]	TGI [8] [µM]	TGI [9] [µM]	TGI [10] [µM]	GI50 [1] [µM]	GI50 [2] [µM]	GI50 [3] [µM]	GI50 [4] [µM]	GI50 [5] [µM]	GI50 [6] [µM]	GI50 [7] [µM]	GI50 [8] [µM]	GI50 [9] [µM]	GI50 [10] [µM]
NS(=O)(=O)c1ccc(NC(=O)Nc2cccc3ccccc23)cc1	> 100	50.8	> 100	> 100	52.8	> 100	> 100	> 100	> 100	> 100	–	–	–	–	–	–	–	–	–	–
COC(=O)C1(N2CCOCC2)CCC([C@@H](c2ccccc2)C(C)[N+](=O)[O-])C1 (some centres not stated)	> 100	> 100	> 100	> 100	> 100	> 100	> 100	20.3	> 100	60.8	–	–	–	–	–	–	–	–	–	–
OCC1OC(n2cnc3cc(Cl)c(Cl)cc32)C(O)C1O (configuration not stated)	34.6	44.7	27	> 100	35.3	> 86.4	32.5	> 100	37.6	58.4	12.7	19.9	12.7	37.9	8.32	29.3	9.36	38.8	18.5	23
C[C@H]1O[C@@H](O[C@H]2[C@@H](O)C[C@H](O[C@H]3[C@@H](O)C[C@H](O[C@H]4CC[C@]5(C)C6CC[C@]7(C)[C@@H](C8=CC(=O)OC8)CC[C@]7(O)C6CC[C@@H]5C4)O[C@@H]3C)O[C@@H]2C)C[C@H](O)[C@@H]1O (some centres not stated)	0.0391	0.0373	0.174	0.067	0.115	0.0504	0.0986	–	0.0493	0.0508	0.0126	0.0141	0.0361	0.019	0.0476	0.0165	0.0328	–	0.0156	0.0163
O=C(O)[C@@H](Cc1ccccc1)NS(=O)(=O)c1ccc(-c2ccccc2)cc1	> 100	> 100	> 100	> 100	> 100	> 100	> 100	> 100	> 100	> 100	> 100	> 100	> 100	> 100	> 100	> 100	> 100	> 100	> 100	> 100
Cc1c(-c2c(F)cc(C(N)=O)c3[nH]c4c(c23)CC[C@H](C(C)(C)O)C4)cccc1-n1c(=O)c2cccc(F)c2n(C)c1=O	> 100	33.4	51.5	> 100	26.4	8.03	66.1	> 100	16.2	63	2.8	4.78	2.81	6.35	3.84	2.04	3.69	4.52	3.83	3.93
N/C(=N/O)NOCCC(N)C(=O)O (configuration not stated)	> 100	> 100	> 100	> 100	> 100	> 100	> 100	> 100	> 100	> 100	> 100	> 100	> 100	> 100	> 100	> 100	> 100	> 100	> 100	> 100
Cc1cccc(Nc2ncc(-c3ccccc3)o2)c1	> 25	> 25	> 25	> 25	> 25	> 25	> 25	> 25	> 25	> 25	> 25	> 25	> 25	> 25	> 25	> 25	> 25	> 25	> 25	> 25
CCN(Cc1c(F)cccc1C(F)(F)F)c1ccc(CO)c(Cl)c1	28.6	29.4	33	26.8	0.154	0.322	33.4	36.1	23.2	32	15	15.6	16.7	13.7	0.035	0.0682	17.4	15.7	7.81	17.7
Cc1ccc(O)c(C(=O)/C=C/c2ccccc2)c1	> 100	> 100	> 100	> 100	> 100	> 100	> 100	> 100	> 100	> 100	–	–	–	–	–	–	–	–	–	–
Cc1cc(C2CC(O)C(CO)O2)c(Br)cc1Br (configuration not stated)	> 100	> 100	> 100	> 100	> 100	> 100	> 100	> 100	> 100	> 100	> 100	> 100	> 100	> 100	> 100	> 100	> 100	> 100	> 100	> 100
COc1ccc(N2CCN(c3nc(-c4ccccn4)nc4sc5c(c34)CCCCCC5)CC2)cc1	> 100	> 100	> 100	> 100	> 100	> 100	> 100	> 100	> 100	> 100	5.09	66.9	10.3	> 100	6.49	> 100	5.4	4.32	2.85	6.92
CC1(/C=C/c2ccc(-c3ccccc3)cc2)CCn2cnc3ncnc(c32)N1O (configuration not stated)	14.2	5.55	34.6	20.4	20.2	> 100	2.49	41.5	2.75	16.9	0.281	0.388	0.409	0.434	0.571	0.492	0.265	0.153	0.324	0.495
OCC1OC(N2CCN(C3OC(CO)C(O)C(O)C3O)CC2)C(O)C(O)C1O (configuration not stated)	> 100	> 100	> 100	> 100	> 100	> 100	> 100	–	> 100	> 100	–	–	–	–	–	–	–	–	–	–
